The structures appear in SMILES notation. ≈ marks a conversion by molar mass, not a printed value.

Common to all, as to assay: MIC, broth microdilution (NCCLS)
Background: Dilution methods test growth across graded concentrations, often in twofold steps.

Assay [1] concerns Enterococcus faecalis Enfa_29212. The assay is classed as cell-based. To be noted: Table 7, Strain ID D (Table 6): E. faecalis Enfa_29212; in µg/mL (unit assumed). As for the experimental part: (§1) Strains. The bacterial isolates listed in Table 4 were cultivated from −70° C. frozen stocks by two consecutive overnight passages (P1, P2) at 35° C. on 5% blood agar (Remel, Lenexa, Kans.). Chocolate agar (Remel) is used for Haemophilus influenzae. H. influenzae and Streptococcus pneumoniae are incubated in 5-10% CO2
(§2) Drug Stock Preparation. To determine the amount of solvent to be used to give the desired final concentration, the formula “weight obtained in mg/final concentration in mg/ml” will be used. It will give the amount of solvent in ml needed to be added to give the desired concentration. For example, if 2.5 mg/ml is the desired concentration and the weight of compound is 13.7 mg, then the amount of solvent to be added is […]. Methanol is used as the solvent to dissolve the test compounds. Further dilution of stock is done in sterile, deionized water. Drug stocks are kept frozen at −70° C., protected from light.
(§3) Susceptibility Testing. MICs are determined by the broth microdilution method in accordance with the NCCLS guidelines. In brief, organism suspensions are adjusted to a 0.5 McFarland standard to yield a final inoculum between 3×10^5 and 7×10^5 CFU/ml. Drug dilutions and inocula are made in sterile, cation adjusted Mueller-Hinton Broth (CAMHB) (Remel) for all but S. pneumoniae [CAMHB with 2-5% lysed horse blood (Remel)] and H. influenzae [Haemophilus Test Medium (Remel)]. An inoculum volume of 100 μl is added to wells containing 100 μl of broth with 2-fold serial dilutions of drug. All inoculated microdilution trays are incubated in ambient air at 35° C. for 18-24 hours, except for S. pneumoniae, and H. influenzae (both at 5-10% CO2).
(§4) Following appropriate incubation, the MIC is determined and the MIC is defined as the lowest concentration of the drug that prevented visible growth.
(§5) Strains. The bacterial isolates listed in Table 8 were cultivated from −70° C. frozen stocks by two consecutive overnight passages (P1, P2) at 35° C. on 5% blood agar (Remel, Lenexa, Kans.). Chocolate agar (Remel) is used for Haemophilus influenzae. H. influenzae and Streptococcus pneumoniae are incubated in 5-10% CO2
(§6) Following appropriate incubation, the MIC is determined and the MIC is defined as the lowest concentration of the drug that prevented visible growth. […] Antibacterial activity of representative compounds of the invention were compared against telitromycin.

Assay [2] has as its system Haemophilus influenzae Hain_49247. The format is cell-based. To be noted: Table 7, Strain ID M (Table 6): H. influenzae Hain_49247; unit assumed. As for the experimental part: as §1, §2, §3, §4, §5, §6
In assay [3] the test system is Staphylococcus aureus Stau_29213. The format is cell-based. To be noted: Table 7, Strain ID A (Table 6): S. aureus Stau_29213; in µg/mL (unit assumed). On the procedure: as §1, §2, §3, §4, §5, §6
In assay [4] the test system is Staphylococcus epidermidis Step_14990. The assay is classed as cell-based. To be noted: Table 7, Strain ID B (Table 6): S. epidermidis Step_14990; in µg/mL (unit assumed). On the procedure:
as §1, §2, §3, §4, §5, §6

Assay [5] deals with Staphylococcus epidermidis Step_f50654. The format is cell-based. Conditions: Table 7, Strain ID C (Table 6): S. epidermidis Step_f50654; in µg/mL (unit assumed). As for the experimental part:
as §1, §2, §3, §4, §5, §6

In assay [6] the test system is Streptococcus pneumoniae Stpn_Erm S 4297. The format is cell-based. Conditions: Table 7, Strain ID J (Table 6): S. pneumoniae Stpn_Erm S 4297. As for the experimental part:
as §1, §2, §3, §4, §5, §6

The test system of assay [7] is Streptococcus pneumoniae Stpn_Mef S 3427. The assay is classed as cell-based. To be noted: Table 7, Strain ID L (Table 6): S. pneumoniae Stpn_Mef S 3427. On the procedure: as §1, §2, §3, §4, §5, §6
In assay [8] the test system is Streptococcus pyogenes Stpy_8668. The format is cell-based. Conditions: Table 7, Strain ID E (Table 6): S. pyogenes Stpy_8668. On the procedure: as §1, §2, §3, §4, §5, §6
Assay [9] has as its system S. pneumoniae Stpn_Erm 6849. The format is cell-based, Streptococcus pneumoniae. To be noted: Table 7, Strain ID I (Table 6): S. pneumoniae Stpn_Erm 6849. On the procedure:
as §1, §2, §3, §4

Assay [10] deals with Streptococcus pneumoniae Stpn_Mef 5654. The assay is classed as cell-based. To be noted: Table 7, Strain ID K (Table 6): S. pneumoniae Stpn_Mef 5654; in µg/mL (unit assumed). As for the experimental part:
as §1, §2, §3, §4, §5, §6

The test system of assay [11] is Streptococcus pneumoniae Stpn_49619. The format is cell-based. To be noted: Table 7, Strain ID F (Table 6): S. pneumoniae Stpn_49619. On the procedure: as §1, §2, §3, §4, §5, §6
Assay [12] relates to Streptococcus pneumoniae Stpn_297-749. The format is cell-based. To be noted: Table 7, Strain ID G (Table 6): S. pneumoniae Stpn_297-749. As for the experimental part: as §1, §2, §3, §4, §5, §6
Assay [13] concerns Streptococcus pneumoniae Stpn_280-962. The assay is classed as cell-based. To be noted: Table 7, Strain ID H (Table 6): S. pneumoniae Stpn_280-962. As for the experimental part: as §1, §2, §3, §4, §5, §6

With `CC[C@H]1OC(=O)[C@@](C)(F)C(=O)[C@H](C)[C@@H](OC2O[C@H](C)C[C@H](N(C)C)[C@H]2O)[C@@](C)(OC)C[C@@H](C)C(=O)[C@H](C)[C@H]2N(CCCCc3ccc4ccccc4n3)C(=O)O[C@]12CC` (stereo partly drawn) [65 (1), (3aS,4R,7S,9R,10R,11S,13R,15R,15aR)-3a,4-DIETHYL-7-FLUORO-11-METHOXY-7,9,11,13,15-PENTAMETHYL-2,6,8,14-TETRAOXO-1-(4-QUINOLIN-2-YLBUTYL)TETRADECAHYDRO-2H-OXACYCLOTETRADECINO[4,3-D][1,3]OXAZOL-10-YL-3,4,6-TRIDEOXY-3-(DIMETHYLAMINO)-D-XYLO-HEXOPYRANOSIDE], the MIC was 0.1 in [1]; 3.13 µg/mL (≈ 3.78 µM) in [2]; 0.2 in assay [3]; 0.2 in assay [4]; 0.2 in assay [5]; “=0.05” in assay [6]. In addition, the MIC entry in [7] is listed as “=0.05”; in assay [8], “=0.05”; in [9], “=0.05”; in assay [10], 0.2.
For the compound `C/C=C/[C@]12OC(=O)N(CCCCn3cnc(-c4cccnc4)c3)[C@@H]1[C@@H](C)C(=O)[C@H](C)C[C@](C)(OC)[C@H](OC1O[C@H](C)C[C@H](N(C)C)[C@H]1O)[C@@H](C)C(=O)[C@@H](C)C(=O)O[C@@H]2CC` (stereo partly drawn) [65 (2), (3aS,4R,7R,9R,10R,11S,13R,15R,15aR)-4-ETHYL-11-METHOXY-7,9,11,13,15-PENTAMETHYL-2,6,8,14-TETRAOXO-3a-[(1E)-PROP-1-ENYL]-1-[4-(4-PYRIDIN-3-YL-1H-IMIDAZOL-1-YL)BUTYL]TETRADECAHYDRO-1H-OXACYCLOTETRADECINO[4,3-D][1,3]OXAZOL-10-YL 3,4,6-TRIDEOXY-3-(DIMETHYLAMINO)-D-XYLO-HEXOPYRANOSIDE], the MIC in assay [1] worked out at 0.78; in [2], 25 µg/mL (≈ 29.8 µM); in assay [3], 3.13; in assay [4], 3.13; in assay [5] it was 3.13; in assay [6] (unit assumed), 0.4 µg/mL (≈ 0.477 µM). Further, the MIC was 0.2 in [7] (in µg/mL (unit assumed)); 0.2 µg/mL (≈ 0.239 µM) in assay [8] (unit assumed); “=0.05” in assay [11]; “=0.05” in assay [12]; “=0.05” in [13]; 0.78 µg/mL (≈ 0.931 µM) in [9] (unit assumed). Besides, in assay [10], the MIC is reported as 0.78.
As for `CC[C@H]1OC(=O)[C@H](C)C(=O)[C@H](C)[C@@H](OC2O[C@H](C)C[C@H](N(C)C)[C@H]2O)[C@@](C)(OC)C[C@@H](C)C(=O)[C@H](C)[C@H]2N(CCCCc3ccnc4ccccc34)C(=O)O[C@]12CC` (stereo partly drawn) [Example 15, (3aS,4R,7R,9R,10R,11S,13R,15R,15aR)-3a,4-DIETHYL-11-METHOXY-7,9,11,13,15-PENTAMETHYL-2,6,8,14-TETRAOXO-1-(4-QUINOLIN-4-YLBUTYL)TETRADECAHYDRO-2H-OXACYCLOTETRADECINO[4,3-D][1,3]OXAZOL-10-YL-3,4,6-TRIDEOXY-3-(DIMETHYLAMINO)-D-XYLO-HEXOPYRANOSIDE], the MIC was 0.1 in assay [1]; 3.13 µg/mL (≈ 3.86 µM) in assay [2]; 0.2 in assay [4]; 0.1 µg/mL (≈ 0.123 µM) in [6] (unit assumed); “=0.05” in assay [7]; “=0.05” in assay [8]. For the same compound, the MIC result in assay [11], in [12] and in assay [13] was “=0.05” each time.
With `CC[C@H]1OC(=O)[C@H](C)C(=O)[C@H](C)[C@@H](OC2O[C@H](C)C[C@H](N(C)C)[C@H]2O)[C@@](C)(OC)C[C@@H](C)C(=O)[C@H](C)[C@H]2N(CCCCn3cc(-c4cccnc4)nc3C)C(=O)O[C@]12CC` (stereo partly drawn) [Example 20, (3aS,4R,7R,9R,10R,11S,13R,15R,15aR)-3a,4-diethyl-11-methoxy-7,9,11,13,15-pentamethyl-1-[4-(2-methyl-4-pyridin-3-yl-1H-imidazol-1-yl)butyl]-2,6,8,14-tetraoxotetradecahydro-2H-oxacyclotetradecino[4,3-d][1,3]oxazol-10-yl-3,4,6-trideoxy-3-(dimethylamino)-D-xylo-hexopyranoside], the MIC result in [6], in assay [7], in assay [8], in assay [11], in assay [12] and in assay [13] was “=0.05” in each case. Further, the MIC result in assay [9] is “=0.5”.
In the case of `CC[C@H]1OC(=O)[C@H](C)C(=O)[C@H](C)[C@@H](OC2O[C@H](C)C[C@H](N(C)C)[C@H]2O)[C@@](C)(OC)C[C@@H](C)C(=O)[C@H](C)[C@H]2N(CCCCn3cnc(-c4ccc(F)nc4)c3)C(=O)O[C@]12CC` (stereo partly drawn) [Example 33, (3aS,4R,7R,9R,10R,11S,13R,15R,15aR)-3a,4-DIETHYL-1-14-[4-(6-FLUOROPYRIDIN-3-YL)-1H-IMIDAZOL-1-YL]BUTYL}-11-METHOXY-7,9,11,13,15-PENTAMETHYL-2,6,8,14-TETRAOXOTETRADECAHYDRO-1H-OXACYCLOTETRADECINO[4,3-D][1,3]OXAZOL-10-YL-3,4,6-TRIDEOXY-3-(DIMETHYLAMINO)-D-XYLO-HEXOPYRANOSIDE], the MIC result in assay [8], in [12], in [13] and in assay [9] was “=0.05” each time.
Consider `CC[C@H]1OC(=O)[C@H](C)C(=O)[C@H](C)[C@@H](OC2O[C@H](C)C[C@H](N(C)C)[C@H]2O)[C@@](C)(OC)C[C@@H](C)C(=O)[C@H](C)[C@H]2N(CCCCc3ncc(-c4cccc(N)c4)s3)C(=O)O[C@]12CC` (stereo partly drawn) [Example 34, (3aS,4R,7R,9R,10R,11S,13R,15R,15aR)-1-{4-[5-(3-AMINOPHENYL)-1,3-THIAZOL-2-YL]BUTYL}-3a,4-DIETHYL-11-METHOXY-7,9,11,13,15-PENTAMETHYL-2,6,8,14-TETRAOXOTETRADECAHYDRO-1H-OXACYCLOTETRADECINO[4,3-D][1,3]OXAZOL-10-YL 3,4,6-TRIDEOXY-3-(DIMETHYLAMINO)-D-XYLO-HEXOPYRANOSIDE], for which the MIC entry in [8], in assay [12], in [13] and in assay [9] was “=0.05” each time.
For `CC[C@H]1OC(=O)[C@H](C)C(=O)[C@H](C)[C@@H](OC2O[C@H](C)C[C@H](N(C)C)[C@H]2O)[C@@](C)(OC)C[C@@H](C)C(=O)[C@H](C)[C@H]2N(CCCOc3cccc(-c4cccnc4)c3)C(=O)O[C@]12CC` (stereo partly drawn) [Example 35, (3aS,4R,7R,9R,10R,11S,13R,15R,15aR)-3a,4-diethyl-11-methoxy-7,9,11,13,15-pentamethyl-2,6,8,14-tetraoxo-1-[3-(3-pyridin-3-ylphenoxy)propyl]tetradecahydro-1H-oxacyclotetradecino[4,3-d][1,3]oxazol-10-yl-3,4,6-trideoxy-3-(dimethylamino)-D-xylo-hexopyranoside], the MIC entry in assay [12], in assay [13] and in assay [9] was “=0.05” each time.
